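Following 48 hours of exposure in 96-well plates, responses at five concentrations were used to interpolate endpoints linearly. GI50: concentration for 50% inhibition of growth.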 The source made the active and inactive calls. Cut-off read from the data, not from the text of the source: active = GI50 up to about 1.1 µM and inactive = higher.
Assays:
Test in all cases: inhibition of tumour cell growth, NCI panel, 48 h
[1] = test system: 786-0
[2] = test system: ACHN
[3] = test system: BT-549
[4] = test system: HCT-116
[5] = test system: HOP-92
[6] = test system: HT-29
[7] = test system: MCF7
[8] = test system: MDA-MB-435
[9] = test system: Malme-3M
[10] = test system: NCI-H226
[11] = test system: NCI-H23
[12] = test system: NCI-H522
[13] = test system: SF-268
[14] = test system: SK-OV-3
[15] = test system: SR
[16] = test system: UACC-62
[17] = test system: LOX IMVI
[18] = test system: M14
[19] = test system: NCI-H460
[20] = test system: RPMI-8226

SMILES	GI50 [1]	GI50 [2]	GI50 [3]	GI50 [4]	GI50 [5]	GI50 [6]	GI50 [7]	GI50 [8]	GI50 [9]	GI50 [10]	GI50 [11]	GI50 [12]	GI50 [13]	GI50 [14]	GI50 [15]	GI50 [16]	GI50 [17]	GI50 [18]	GI50 [19]	GI50 [20]
CCc1n[nH]c(=O)n1O	> 100 µM (inactive)	> 100 µM (inactive)	> 100 µM (inactive)	> 100 µM (inactive)	0.0738 µM (active)	> 100 µM (inactive)	> 100 µM (inactive)	> 100 µM (inactive)	> 100 µM (inactive)	> 100 µM (inactive)	> 100 µM (inactive)	> 100 µM (inactive)	> 100 µM (inactive)	> 100 µM (inactive)	> 100 µM (inactive)	> 100 µM (inactive)	–	–	–	–
CNC(=O)c1cc(NC(=O)N(CCC#N)CCN(C(=O)N[C@@H](Cc2ccccc2)C(=O)N[C@@H](CC(C)C)C(=O)NC)c2ccccc2)ccc1OC	> 55.2 µM (inactive)	> 74.8 µM (inactive)	> 69.5 µM (inactive)	> 63.7 µM (inactive)	20.9 µM (inactive)	> 100 µM (inactive)	> 76 µM (inactive)	> 100 µM (inactive)	17.3 µM (inactive)	> 100 µM (inactive)	> 100 µM (inactive)	–	34.2 µM (inactive)	> 100 µM (inactive)	21 µM (inactive)	23.2 µM (inactive)	49.3 µM (inactive)	> 93.3 µM (inactive)	15.8 µM (inactive)	56.8 µM (inactive)
O=C1C=CC(=O)N1n1c(-c2ccccc2)n[nH]c1=O	> 100 µM (inactive)	–	> 100 µM (inactive)	> 100 µM (inactive)	–	> 100 µM (inactive)	> 100 µM (inactive)	> 100 µM (inactive)	> 100 µM (inactive)	> 100 µM (inactive)	> 100 µM (inactive)	> 100 µM (inactive)	> 100 µM (inactive)	> 100 µM (inactive)	> 100 µM (inactive)	> 100 µM (inactive)	–	> 100 µM (inactive)	> 100 µM (inactive)	–
Cc1ccc(S(=O)(=O)C2=C([Si](C)(C)C)C3CC2[C@@H]2C4C=CC(CC4)[C@H]32)cc1 (stereo partly specified)	34.6 µM (inactive)	99.5 µM (inactive)	> 100 µM (inactive)	> 100 µM (inactive)	60.7 µM (inactive)	> 100 µM (inactive)	> 100 µM (inactive)	> 100 µM (inactive)	> 100 µM (inactive)	95.3 µM (inactive)	–	51.9 µM (inactive)	38.1 µM (inactive)	45.1 µM (inactive)	> 100 µM (inactive)	60.5 µM (inactive)	> 100 µM (inactive)	> 100 µM (inactive)	86.1 µM (inactive)	–
CCSc1c(C)c2c(n(Cc3ccc(OC)cc3)c1=O)Cc1ccccc1C2	11 µM (inactive)	10.3 µM (inactive)	22.9 µM (inactive)	11.2 µM (inactive)	–	28.2 µM (inactive)	24.7 µM (inactive)	25.1 µM (inactive)	10.8 µM (inactive)	36.5 µM (inactive)	20 µM (inactive)	11.9 µM (inactive)	11.8 µM (inactive)	39.5 µM (inactive)	3.61 µM (inactive)	22.9 µM (inactive)	11.9 µM (inactive)	10.9 µM (inactive)	6.11 µM (inactive)	–
CNC(c1ccncc1)C(NC)c1ccncc1 (stereo unspecified)	> 100 µM (inactive)	> 100 µM (inactive)	> 100 µM (inactive)	> 100 µM (inactive)	–	> 100 µM (inactive)	> 100 µM (inactive)	> 100 µM (inactive)	> 100 µM (inactive)	> 100 µM (inactive)	> 100 µM (inactive)	> 100 µM (inactive)	> 100 µM (inactive)	> 100 µM (inactive)	> 100 µM (inactive)	> 100 µM (inactive)	> 100 µM (inactive)	> 100 µM (inactive)	–	> 100 µM (inactive)
CS(=O)(=O)OCCN1CCC2(CC1)SSC1(CCN(CCOS(C)(=O)=O)CC1)S2	56.9 µM (inactive)	33.5 µM (inactive)	45.5 µM (inactive)	53.2 µM (inactive)	–	50.5 µM (inactive)	17.1 µM (inactive)	> 100 µM (inactive)	22.8 µM (inactive)	–	60 µM (inactive)	–	22.3 µM (inactive)	64.4 µM (inactive)	14.1 µM (inactive)	30.1 µM (inactive)	19.8 µM (inactive)	> 100 µM (inactive)	34.8 µM (inactive)	8.87 µM (inactive)
O=C(Nc1ccccc1)c1cc2c(cc1Cl)SC(NNCCO)=NS2(=O)=O	> 100 µM (inactive)	> 100 µM (inactive)	> 100 µM (inactive)	> 100 µM (inactive)	> 100 µM (inactive)	> 100 µM (inactive)	> 100 µM (inactive)	> 100 µM (inactive)	–	> 100 µM (inactive)	> 100 µM (inactive)	–	> 100 µM (inactive)	> 100 µM (inactive)	> 100 µM (inactive)	> 100 µM (inactive)	> 100 µM (inactive)	> 100 µM (inactive)	> 100 µM (inactive)	> 100 µM (inactive)
O=C(O)Cn1cc([N+](=O)[O-])c(=O)c2ccccc21	> 100 µM (inactive)	> 100 µM (inactive)	> 100 µM (inactive)	> 100 µM (inactive)	–	> 100 µM (inactive)	> 100 µM (inactive)	> 100 µM (inactive)	> 100 µM (inactive)	> 100 µM (inactive)	> 100 µM (inactive)	> 100 µM (inactive)	> 100 µM (inactive)	> 100 µM (inactive)	> 100 µM (inactive)	> 100 µM (inactive)	–	> 100 µM (inactive)	> 100 µM (inactive)	–
Cc1nc(-c2cc3cc([N+](=O)[O-])ccc3oc2=O)cs1	> 100 µM (inactive)	> 100 µM (inactive)	> 100 µM (inactive)	> 100 µM (inactive)	67.3 µM (inactive)	> 100 µM (inactive)	> 100 µM (inactive)	> 100 µM (inactive)	–	> 100 µM (inactive)	–	–	> 100 µM (inactive)	> 100 µM (inactive)	71.3 µM (inactive)	> 100 µM (inactive)	> 100 µM (inactive)	> 100 µM (inactive)	> 100 µM (inactive)	> 100 µM (inactive)
O=C(O)C/C(=C\c1ccco1)C(=O)O	> 100 µM (inactive)	> 100 µM (inactive)	> 100 µM (inactive)	> 100 µM (inactive)	–	> 100 µM (inactive)	> 100 µM (inactive)	> 100 µM (inactive)	> 100 µM (inactive)	> 100 µM (inactive)	> 100 µM (inactive)	> 100 µM (inactive)	–	> 100 µM (inactive)	> 100 µM (inactive)	> 100 µM (inactive)	> 100 µM (inactive)	> 100 µM (inactive)	–	> 100 µM (inactive)
[O-][n+]1cn[n+]([O-])c2ccccc21	14.6 µM (inactive)	12.2 µM (inactive)	23.7 µM (inactive)	13.3 µM (inactive)	–	13.6 µM (inactive)	14.3 µM (inactive)	67.3 µM (inactive)	18.6 µM (inactive)	> 100 µM (inactive)	65.3 µM (inactive)	15.1 µM (inactive)	33.2 µM (inactive)	27.3 µM (inactive)	18.4 µM (inactive)	16.3 µM (inactive)	23.9 µM (inactive)	23.8 µM (inactive)	–	28.6 µM (inactive)
CC(=O)Oc1ccc2c(c1)CC[C@@H]1C2CC[C@]2(C)C(=O)NC(=O)CC12 (stereo partly specified)	> 100 µM (inactive)	> 100 µM (inactive)	> 100 µM (inactive)	> 100 µM (inactive)	> 100 µM (inactive)	> 100 µM (inactive)	> 100 µM (inactive)	> 100 µM (inactive)	> 100 µM (inactive)	> 100 µM (inactive)	> 100 µM (inactive)	> 100 µM (inactive)	> 100 µM (inactive)	> 100 µM (inactive)	91.4 µM (inactive)	> 100 µM (inactive)	–	> 100 µM (inactive)	> 100 µM (inactive)	–
O=c1[nH]cc(/N=C/c2cc(Cl)ccc2O)c(=O)[nH]1	22 µM (inactive)	13.7 µM (inactive)	4.84 µM (inactive)	9.02 µM (inactive)	11.2 µM (inactive)	31.3 µM (inactive)	17.7 µM (inactive)	29.1 µM (inactive)	25.1 µM (inactive)	19.2 µM (inactive)	19 µM (inactive)	31.7 µM (inactive)	5.62 µM (inactive)	18.7 µM (inactive)	1.85 µM (inactive)	21.9 µM (inactive)	–	13.8 µM (inactive)	48.8 µM (inactive)	5.93 µM (inactive)
CC(C)(NO)/C(=N\O)c1ccccc1	> 10 µM (inactive)	> 10 µM (inactive)	> 10 µM (inactive)	> 10 µM (inactive)	> 10 µM (inactive)	> 10 µM (inactive)	> 10 µM (inactive)	> 10 µM (inactive)	> 10 µM (inactive)	> 10 µM (inactive)	> 10 µM (inactive)	> 10 µM (inactive)	> 10 µM (inactive)	–	> 10 µM (inactive)	–	–	> 10 µM (inactive)	> 10 µM (inactive)	> 10 µM (inactive)
N#CCCN(CCC#N)c1ccc(C(=N/c2ccc(F)cc2)/N=N/c2ccc(Cl)cc2)cc1	> 100 µM (inactive)	> 100 µM (inactive)	> 100 µM (inactive)	> 100 µM (inactive)	> 100 µM (inactive)	> 100 µM (inactive)	> 100 µM (inactive)	> 100 µM (inactive)	–	> 100 µM (inactive)	> 100 µM (inactive)	> 100 µM (inactive)	> 100 µM (inactive)	> 100 µM (inactive)	> 100 µM (inactive)	> 100 µM (inactive)	–	> 100 µM (inactive)	> 100 µM (inactive)	> 100 µM (inactive)

Source: ChEMBL document CHEMBL1201862, “PubChem BioAssay data set” (2004)
